Measured values published in patent US20240261245A1, “METHODS OF TREATING CANCERS HAVING A DEREGULATED NRF2/KEAP1 PATHWAY” (New York University, priority 2017, published 2024).
Counter-ions that a name gives are not always drawn. Like-named read-outs stand apart in the source and are kept apart here.

Assays:
Nrf2 [1] = conditions: SFN 10 μM for 6 hr
Experimental: (§1) Cells were maintained in DMEM or RPMI supplemented with 10% Fetal Bovine Serum and gentamicin. Cell lines expressing rtTA were kept under Neomycin selection (400 ug/mL). Cell lines expressing dox inducible Nrf2 constructs remained under Hygromycin selection (600 ug/mL). […] Viability in the presence of all compounds was assessed by cell titer glo (Promega #G7570) and trypan blue exclusion on a Countess II automated cell counter (Life Technologies). For clonogenic and low-density assays, cells were stained with Crystal Violet solution (25% Methanol 75% H20). For cell counts after DMF treatment cells were fixed with 4% paraformaldehyde for 15 minutes at 4 C. Cells were then washed in ice cold PBS and then stained with Hoechst DNA stain. Plates were quantified using a Tecan infinite M200 Pro plate reader or a SpectraMax M5 Miroplate reader (Molecular Devices).
Cells were lysed in 250 μL ice-cold RIPA buffer (Pierce, #89900) supplemented with 1 × Complete Mini inhibitor mixture (Roche, #11 836 153 001) and mixed on a rotator at 4° C. for 30 minutes. The protein concentration of the cell lysates was quantified using the Bio-Rad DC Protein Assay (Catalog #500-0114). 50-80 μg of total protein was separated on 4-12% Bis-Tris gradient gels (Bio-Rad) by SDS-PAGE and then transferred to nitrocellulose membranes. […]
RNA was collected from cells as before (Papagiannakopoulos et al. (2016, Cell Metab 24, 324-331, doi:10.1016/j.cmet.2016.07.001) with RNeasy plus mini kit (Qiagen), sequenced with X analyzed with YZ. For Real Time qPCR analysis, complementary DNA (cDNA) was synthesized from RNA with the High Capacity cDNA Reverse Transcription Kit (Applied Biosystems #4368814). Genes Slc7a11, Gclc, Hmox1, and Nqo1 were analyzed by quantitative reverse transcription polymerase chain reaction on LightCycler 480 II (Roche). RT qPCR primers (Supplementary Sequences).

KPK cell lines = test: Viability/growth of KPK (Keap1 loss) cell lines compared to KP (cell titer glo, trypan blue, crystal violet); assay type: cell-based, mouse
Experimental: as §1

KPN-ix cell lines = test: BSO dose response in KPN-ix cells with doxycycline inducible GOF-Nrf2; assay type: cell-based, mouse
Experimental: as §1

[2] = test system: KP, KPN and KPK cell lines; test: Viability of isogenic cell line panel treated with oxidative stress inducers (cell-titer glo); assay type: cell-based, mouse; conditions: 72 hours of drug treatment
Experimental: as §1

glutathione (GSH) = test: Glutathione measurement (GSH/GSSG-Glo) after BSO; assay type: cell-based, mouse
Experimental: ROS in cultured cells were measured by incubating […] with 5 μM CM-H2DCFDA (C6827, Life Technologies) for 30 min at 37° C. DCF fluorescence was acquired on the Attune NxT (ThermoFisher) flow cytometer and analyzed using FlowJo software (Tree Star). Reduced (GSH) and oxidized glutathione (GSSG) was measured with a GSH/GSSG-Glo Assay kit (V6611, Promega) for the indicated amount of time.

KP-derived tumors = test: CB-839 treatment of KP-derived subcutaneous and orthotopic tumors in immunodeficient animals; assay type: in vivo, mouse; conditions: subcutaneous and orthotopic transplants; 200 mg/kg CB-839 twice a day
Experimental: (§2) Animals were treated as before (Davidson et al. 2016, Cell Metab 23:517-528, doi: 10.1016/j.cmet.2016.01.007) with 200 mg/kg CB-839 or vehicle twice a day after tumor establishment phase. The vehicle contained 25% (w/v) hydroxypropyl-β-cyclodextrin in 10 mmol/L citrate (pH 2.0), and CB-839 was formulated at 20 mg/mL for a final dosing volume of 10 mL/kg.
(§3) It was next asked if increased glutamine utilization in KPK cell lines could be a druggable metabolic liability. […] Consistently, a panel of human lung cancer cells containing KEAP1 mutations or GOF mutations in NRF2 were sensitive to glutaminase inhibition while KEAP1 WT cells were largely resistant (FIG. 9C and FIG. 10B). […] To investigate the therapeutic potential of targeting glutaminase in Keap mutant tumors in vivo, KP and KPK cells were transplanted subcutaneously and orthotopically (lung) in immunodeficient animals. Once tumors had established, treatment was initiated with either vehicle or CB-839, an orally bioavailable glutaminase inhibitor in phase I clinical trials for KRAS mutant NSCLC (FIG. 9E).

[3] = test system: KPK-derived subcutaneous and orthotopic tumors; test: CB-839 treatment of KPK-derived subcutaneous and orthotopic tumors in immunodeficient animals; assay type: in vivo, mouse
Experimental: as §2, §3

KP-ix cells = test: Viability counts of KP-ix cells (doxycycline inducible GOF-Nrf2) with CB-839; assay type: cell-based, mouse; conditions: CB-839 250 nM, 72 hours
Experimental: as §1

T cell = test: Impact of CB839 on T cell function (data not shown); assay type: cell-based
Nrf2 [4] = test: Western blot for Nrf2 after oxidative stress inducer DMF in isogenic KP/KPK cells; assay type: cell-based, mouse; conditions: control (KP) cells; 6 hour DMF treatment
Source text: To perform in vitro functional characterization of and Keap1, isogenic cell lines were generated from a Kras^LSL-G12D/+; p53^−/− C57B6 GEMM-derived cell line using the CRISPR/Cas9 and sgRNAs against Keap1. LOF of the gene was validated by western blot analysis in basal conditions and in the presence of an oxidative stress inducer, dimethyl fumarate (DMF), which is known to deplete the cellular glutathione pool and induce Nrf2 activation (Sullivan et al., “The Proto-oncometabolite Fumarate Binds Glutathione to Amplify ROS-Dependent Signaling,” Molecular Cell 51:236-248 (2013), which is hereby incorporated by reference in its entirety). It was observed that Nrf2 is induced in control cells in response to 6 hour DMF treatment. Keap1 LOF leads to a robust increase of Nrf2 even in the absence of DMF (FIG. 13).

KPN cells = test: Viability of KPN (Nrf2 loss) cells under oxidative stress agents; assay type: cell-based, mouse; conditions: KPN cells treated with oxidative stress agents (BSO, AUR, ERA)
Experimental: as §1

[5] = intraperitoneal, 50 mg/kg daily over 30 days; cited from earlier work
GPD2 = conditions: in vivo; cited from earlier work

For `C[S+]([O-])CCCCN=C=S` (racemic) [Sulforaphane, D,L-Sulforaphane], the “Nrf2 protein levels and expression of target genes” value (shortened to “Nrf2 protein levels and expression”) (Nrf2 [1]; KP cells) was “stabilized Nrf2 protein levels and expression of target genes”, the “Nrf2 protein levels and expression” value (Nrf2 [1]; KP cells, listed as SFN) was “accumulation of Nrf2 occurs only in the KP samples” and the “Nrf2 protein levels and expression” value (Nrf2 [1]; KPK or KPN cells, listed as SFN) was “not further stabilized”.
For `O=CC[C@@H](O)[C@H](O)[C@H](O)CO` [2-deoxy-D-glucose], the “sensitivity to glycolytic inhibitor” value (KPK cell lines; KPK compared to KP cells, 5 mM 2DG for 72 h) was “increased sensitivity”.
For `CCCCS(=N)(=O)CCC(N)C(=O)O` [BSO, L-Buthionine-sulfoximine], the “BSO-mediated loss of viability upon induction of GOF-Nrf2” value (KPN-ix cell lines; 72 hours of dox induction) was “rescued”, the “IC50 of BSO” value (KPN-ix cell lines; KPN-ix +dox versus -dox, 72 hours) was “increase” and the “genotype-specific sensitivity (cell viability)” value [2] was “distinct genotype-specific sensitivities”. For the same molecule, the “levels of GSH and viability” value (glutathione (GSH); KPK compared to KP clones, 100 μM BSO) was “maintain measurable levels of GSH and viability”, the GSH pools (glutathione (GSH); KPN clones, after 12 hours of BSO treatment (100 μM)) was “rapid exhaustion of GSH pools” and the “reduced glutathione (GSH): oxidized glutathione (GSSG) ratio” value (glutathione (GSH); panel of isogenic cell lines (KP, KPN, KPK)) was “stark contrast”.
For `O=C(Cc1cccc(OC(F)(F)F)c1)Nc1ccc(CCCCc2nnc(NC(=O)Cc3ccccn3)s2)nn1` [CB-839], the “tumor response to treatment” value (KP-derived tumors) was “no response”, the final tumor weights ([3]; 200 mg/kg CB-839 twice a day versus vehicle) was “smaller final tumor weights” and the “tumor growth over the course of the experiment” value ([3]; subcutaneous and orthotopic transplants, 200 mg/kg CB-839 twice a day) was “dramatic stunted growth”. For the same molecule, the “sensitivity to glutaminase inhibitors” value (KPK cell lines; KPK compared to KP cell lines, 72 hours) was “far more sensitive”, the “sensitivity to CB-839 upon induction of GOF-Nrf2” value (KP-ix cells) was “robust sensitivity” and the “impact on T cell function” value (T cell) was “does not negatively impact T cell function”.
In the case of `COC(=O)/C=C/C(=O)OC` [DMF, Dimethyl fumarate], the “Nrf2 induction (western blot)” value (Nrf2 [4]) is reported as “induced”.
In the case of `CC(=O)N[C@@H](CS)C(=O)O` [N-acetyl cysteine, N-acetyl-L-cysteine], the “rescue of loss of viability by antioxidants” value (KPN cells) is reported as “rescued”.
With `Cc1c(C)c2c(c(C)c1O)CCC(C)(C(=O)O)O2` (stereo not shown) [Trolox] the “rescue of loss of viability by antioxidants” value (KPN cells) was “rescued”.
In the case of `CC(=O)OC[C@H]1O[C@@H]([S-])[C@H](OC(C)=O)[C@@H](OC(C)=O)[C@@H]1OC(C)=O.CCP(CC)CC.[Au+]` [auranofin, Auranofin], the “genotype-specific sensitivity (cell viability)” value [2] is reported as “distinct genotype-specific sensitivities”.
For `CN(C)C(=N)N=C(N)N` [metformin], the toxicity [5] is listed as “no toxicity” and the GPD2 enzymatic activity (GPD2) is listed as “inhibits”.
